Experiments:
[1] = target: Recombinant human TYK2 catalytic domain (Homo sapiens (Human), UniProt P29597); assay: TYK2 inhibition assay; assay type: biochemical; conditions: semi-quantitative score
Description: After 90 min at 30° C., reactions were stopped by adding of 25 μL/well of 150 mM phosphoric acid. […] Plates were washed 6 times with 300 μL per well of a 75 mM phosphoric acid solution and the bottom of the plates was sealed. 40 μL/well of Microscint-20 was added, the top of the plates was sealed and readout was performed using the Topcount (Perkin Elmer). Kinase activity was calculated by subtracting counts per minute (cpm) obtained in the presence of a positive control inhibitor (10 μM staurosporine) from cpm obtained in the presence of vehicle. The ability of a test compound to inhibit this activity was determined as: Percentage inhibition=((cpm determined for sample with test compound present−cpm determined for sample with positive control inhibitor) divided by (cpm determined in the presence of vehicle−cpm determined for sample with positive control inhibitor))*100%.
Dose dilution series were prepared for the compounds enabling the testing of dose-response effects in the TYK2 assay and the calculation of the IC50 for each compound.

[2] = target: Recombinant human JAK3 catalytic domain (Homo sapiens (Human), UniProt P52333); assay: JAK3 inhibition assay; assay type: biochemical; conditions: semi-quantitative score
Description: Plates were washed 6 times with 300 μL per well of a 75 mM phosphoric acid solution and the bottom of the plates was sealed. 40 μL/well of Microscint-20 was added, the top of the plates was sealed and readout was performed using the Topcount (Perkin Elmer). Kinase activity was calculated by subtracting counts per minute (cpm) obtained in the presence of a positive control inhibitor (10 μM staurosporine) from cpm obtained in the presence of vehicle. The ability of a test compound to inhibit this activity was determined as: Percentage inhibition=((cpm determined for sample with test compound present−cpm determined for sample with positive control inhibitor) divided by (cpm determined in the presence of vehicle−cpm determined for sample with positive control inhibitor))*100%.
Dose dilution series were prepared for the compounds enabling the testing of dose-response effects in the JAK3 assay and the calculation of the IC50 for each compound.

[3] = target: Recombinant human JAK2 catalytic domain (Homo sapiens (Human), UniProt O60674); assay: JAK2 inhibition assay; assay type: biochemical; conditions: semi-quantitative score
Outline: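 Radiometric kinase reactions ran for 90 min at 30 °C and were stopped with phosphoric acid, then washed and counted by scintillation. Percent inhibition was set relative to vehicle and to 10 μM staurosporine background. IC50 was derived from dose-dilution series.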

[4] = target: Recombinant human JAK1 catalytic domain (Homo sapiens (Human), UniProt P23458); assay: JAK1 inhibition assay; assay type: biochemical; conditions: semi-quantitative score
Outline: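 Radiometric assay read by scintillation counting after phosphoric-acid washes. Percent inhibition calculated from cpm relative to vehicle and 10 μM staurosporine control. IC50 derived from compound dose-dilution series.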

[5] = Microsomal stability, human liver microsomes; assay type: in vitro ADME; conditions: percentage of compound remaining after 60 minutes, 3 μM compound
Outline: (§1)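 Compound was incubated with liver microsomes plus an NADP+/glucose-6-phosphate/G6PDH/MgCl2 regenerating system at 37°C for 1 h. Reactions were stopped 1:1 with MeOH or ACN and analysed by LCMS.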

[6] = test system: JAK-STAT signalling in HeLa cells; assay: JAK-STAT signalling assay (OSM-triggered pSTAT1(2)-luciferase reporter in HeLa cells); assay type: cell-based; conditions: Homo sapiens; HeLa cells, OSM-triggered pSTAT1(2)-luciferase reporter; read-out: STAT signalling EC50
Outline: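 HeLa cells transiently transfected with pSTAT1(2)-luciferase reporter plus LacZ internal control, incubated overnight at 37 °C, 10% CO2, then OSM-stimulated with compound. Luciferase read by Steadylite luminescence and normalised to β-galactosidase (ONPG); percent inhibition from controls, EC50 from dose-response.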

[7] = Microsomal stability, rat liver microsomes; assay type: in vitro ADME; conditions: percentage of compound remaining after 60 minutes, 3 μM compound
Outline: as §1

[8] = test system: MMP13 in SW1353 cells; assay: OSM/IL-1β signaling assay (MMP13 levels in SW1353 cells); assay type: cell-based; conditions: Homo sapiens; SW1353 cells, OSM and IL-1β triggered, MMP13 levels 48 hours after triggering; read-out: MMP13 EC50;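 note: secreted MMP13 captured by antibody, activated with APMA and its activity read by fluorescence, inhibition scaled between vehicle-treated triggered wells (0%) and untriggered wells (100%)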
[9] = Caco2 permeability (bi-directional); assay type: in vitro ADME, human; conditions: human, pH 7.4; for Papp A→B at 1 h, 10 µM: Caco-2, apical to basolateral, read-out: Papp (A2B); for efflux ratio at 1 h, 10 µM: Caco-2, ratio of PappB>A/PappA>B
Outline: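 Bidirectional transport across Caco-2 monolayers was run for 1 h at 37 °C with shaking, with 50 μM Lucifer Yellow in the donor to check monolayer integrity (acceptance ≤100 nm/s). Apical and basal compound levels were measured by LC-MS/MS, and efflux ratio was taken as PappB>A/PappA>B.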

Sequence of Recombinant human JAK3 catalytic domain (P52333 781-1124): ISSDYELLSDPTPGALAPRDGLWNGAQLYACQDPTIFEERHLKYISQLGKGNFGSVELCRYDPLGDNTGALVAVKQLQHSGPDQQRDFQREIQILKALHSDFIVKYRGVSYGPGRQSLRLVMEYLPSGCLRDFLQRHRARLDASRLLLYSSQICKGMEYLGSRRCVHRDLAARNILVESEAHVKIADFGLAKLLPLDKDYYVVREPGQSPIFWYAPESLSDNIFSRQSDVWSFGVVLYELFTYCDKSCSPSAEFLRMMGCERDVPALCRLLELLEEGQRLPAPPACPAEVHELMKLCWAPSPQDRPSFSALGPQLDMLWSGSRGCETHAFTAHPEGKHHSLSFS
Sequence of Recombinant human TYK2 catalytic domain (P29597 871-1187): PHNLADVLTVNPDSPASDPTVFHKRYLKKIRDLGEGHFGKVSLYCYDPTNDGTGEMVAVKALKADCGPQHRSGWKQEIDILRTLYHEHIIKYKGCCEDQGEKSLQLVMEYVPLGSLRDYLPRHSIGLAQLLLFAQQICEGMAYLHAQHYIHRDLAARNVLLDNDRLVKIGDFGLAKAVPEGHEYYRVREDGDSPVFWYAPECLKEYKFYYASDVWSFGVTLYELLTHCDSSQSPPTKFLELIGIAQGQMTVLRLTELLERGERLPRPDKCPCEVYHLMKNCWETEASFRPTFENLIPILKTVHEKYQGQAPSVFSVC
Sequence of Recombinant human JAK2 catalytic domain (O60674 808-1132): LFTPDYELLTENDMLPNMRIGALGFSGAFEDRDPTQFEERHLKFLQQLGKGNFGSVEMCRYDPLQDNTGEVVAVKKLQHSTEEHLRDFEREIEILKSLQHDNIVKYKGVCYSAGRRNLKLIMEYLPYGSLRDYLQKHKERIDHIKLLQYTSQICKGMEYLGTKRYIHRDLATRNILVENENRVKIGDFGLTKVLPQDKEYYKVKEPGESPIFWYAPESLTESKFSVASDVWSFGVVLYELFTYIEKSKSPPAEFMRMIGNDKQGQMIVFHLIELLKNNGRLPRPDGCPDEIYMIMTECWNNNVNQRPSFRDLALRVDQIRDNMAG
Sequence of Recombinant human JAK1 catalytic domain (P23458 850-1154): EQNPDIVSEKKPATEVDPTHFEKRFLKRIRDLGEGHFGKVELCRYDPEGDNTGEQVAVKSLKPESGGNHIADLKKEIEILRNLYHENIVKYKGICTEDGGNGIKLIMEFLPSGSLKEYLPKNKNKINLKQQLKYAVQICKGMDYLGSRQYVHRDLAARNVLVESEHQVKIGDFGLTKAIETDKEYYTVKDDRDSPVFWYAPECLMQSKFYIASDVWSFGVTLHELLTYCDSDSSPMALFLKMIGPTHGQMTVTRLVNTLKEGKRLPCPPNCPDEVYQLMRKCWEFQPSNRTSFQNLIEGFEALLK

Row | SMILES | IC50 [1] [nM] | IC50 [2] [nM] | IC50 [3] [nM] | IC50 [4] [nM] | Microsomal Stability Human (%) [5] | EC50 [6] [nM] | Microsomal Stability Rat (%) [7] | EC50 [8] [nM] | Papp A→B at 1 h, 10 µM [9] [×10⁻⁶ cm/s] | efflux ratio at 1 h, 10 µM [9]
1 | CN1CCN(c2ccc(-c3cccc4nc(NC(=O)C5CC5)nn34)cc2)CC1 [Compound 1, N-(5-(4-(4-methylpiperazin-1-yl)phenyl)-[1,2,4]triazolo[1,5-a]pyridin-2-yl)cyclopropanecarboxamide] | > 1000 | > 1000 | 501 to 1000 | 101 to 500 |  |  |  |  |  | 
2 | O=C(Nc1nc2cccc(-c3ccc(NS(=O)(=O)c4ccc(F)cc4)cc3)n2n1)C1CC1 [Compound 33, N-(5-(4-(4-fluorophenylsulfonamido)phenyl)-[1,2,4]triazolo[1,5-a]pyridin-2-yl)cyclopropanecarboxamide] | 101 to 500 | > 1000 | < 100 | < 100 | **** (**** 76-100) | > 1000 | ** (** 26-50) | > 1000 |  | 
3 | O=C(Nc1nc2cccc(-c3ccc(OCC4CCC4)cc3)n2n1)C1CC1 [Compound 39, N-(5-(4-(cyclobutylmethoxy)phenyl)-[1,2,4]triazolo[1,5-a]pyridin-2-yl)cyclopropanecarboxamide] | > 1000 | > 1000 | < 100 | < 100 | ** (** 26-50) | > 1000 | ** (** 26-50) | > 1000 |  | 
4 | O=C(Nc1nc2cccc(-c3ccc(OCC4CCCCC4)cc3)n2n1)C1CC1 [Compound 41, N-(5-(4-(cyclohexylmethoxy)phenyl)-[1,2,4]triazolo[1,5-a]pyridin-2-yl)cyclopropanecarboxamide] | > 1000 |  | 101 to 500 | < 100 | ** (** 26-50) | 501 to 1000 | ** (** 26-50) | 501 to 1000 |  | 
5 | O=C(Nc1ccccc1)c1ccc(-c2cccc3nc(NC(=O)C4CC4)nn23)cc1 [Compound 43, 4-(2-(cyclopropanecarboxamido)-[1,2,4]triazolo[1,5-a]pyridin-5-yl)-N-phenylbenzamide] | > 1000 | > 1000 |  | 101 to 500 | **** (**** 76-100) |  | **** (**** 76-100) |  |  | 
6 | O=C(Nc1nc2cccc(-c3ccc(-c4cccnc4)cc3)n2n1)C1CC1 [Compound 66, N-(5-(4-(pyridin-3-yl)phenyl)-[1,2,4]triazolo[1,5-a]pyridin-2-yl)cyclopropanecarboxamide] | 501 to 1000 |  | 101 to 500 | < 100 | **** (**** 76-100) | > 1000 | * (* 0-25) | > 1000 |  | 
7 | CN(CCc1ccccc1)C(=O)c1ccc(-c2cccc3nc(NC(=O)C4CC4)nn23)cc1 [Compound 96, 4-(2-(cyclopropanecarboxamido)-[1,2,4]triazolo[1,5-a]pyridin-5-yl)-N-methyl-N-phenethylbenzamide] |  | > 1000 | < 100 | < 100 | * (* 0-25) | > 1000 | * (* 0-25) | > 1000 | 34.6 | 1
8 | O=C(NCCc1ccc(C(F)(F)F)cc1)c1ccc(-c2cccc3nc(NC(=O)C4CC4)nn23)cc1 [Compound 97, 4-(2-(cyclopropanecarboxamido)-[1,2,4]triazolo[1,5-a]pyridin-5-yl)-N-(4-(trifluoromethyl)phenethyl) benzamide] |  | 101 to 500 | < 100 | < 100 | * (* 0-25) | 101 to 500 | ** (** 26-50) | 501 to 1000 | 23.8 | 2.61
9 | O=C(Nc1nc2cccc(-c3ccc(OCc4ncon4)cc3)n2n1)C1CC1 [Compound 99, N-(5-(4-((1,2,4-oxadiazol-3-yl)methoxy)phenyl)-[1,2,4]triazolo[1,5-a]pyridin-2-yl)cyclopropanecarboxamide] |  | 101 to 500 | < 100 | < 100 | ** (** 26-50) | 101 to 500 | * (* 0-25) | 1 to 500 | 38.9 | 0.81
10 | O=C(NCCOc1ccccc1)c1ccc(-c2cccc3nc(NC(=O)C4CC4)nn23)c(F)c1 [Compound 100, 4-(2-(cyclopropanecarboxamido)-[1,2,4]triazolo[1,5-a]pyridin-5-yl)-3-fluoro-N-(2-phenoxyethyl)benzamide] |  | > 1000 | < 100 | < 100 | * (* 0-25) | > 1000 | * (* 0-25) | > 1000 | 11.8 | 3.23

Further lines, results first:

Row | IC50 [1] [nM] | IC50 [2] [nM] | IC50 [3] [nM] | IC50 [4] [nM] | Microsomal Stability Human (%) [5] | EC50 [6] [nM] | Microsomal Stability Rat (%) [7] | EC50 [8] [nM] | Papp A→B at 1 h, 10 µM [9] [×10⁻⁶ cm/s] | efflux ratio at 1 h, 10 µM [9] | SMILES
11 |  | > 1000 | 101 to 500 | < 100 | * (* 0-25) | > 1000 | * (* 0-25) | > 1000 | 28 | 0.9 | O=C(Nc1nc2cccc(-c3ccc(NCc4ccccc4)nc3)n2n1)C1CC1 [Compound 104, N-(5-(6-(benzylamino)pyridin-3-yl)-[1,2,4]triazolo[1,5-a]pyridin-2-yl)cyclopropanecarboxamide]
12 |  | > 1000 | < 100 | < 100 | * (* 0-25) | > 1000 | * (* 0-25) | > 1000 | 24.1 | 1.05 | O=C(Nc1nc2cccc(-c3cnn(Cc4ccccc4)c3)n2n1)C1CC1 [Compound 107, N-(5-(1-benzyl-1H-pyrazol-4-yl)-[1,2,4]triazolo[1,5-a]pyridin-2-yl)cyclopropanecarboxamide]
13 |  | > 1000 | < 100 | < 100 | * (* 0-25) | 501 to 1000 | * (* 0-25) | 501 to 1000 | 27.7 | 1.4 | O=C(CCOc1ccccc1)Nc1ccc(-c2cccc3nc(NC(=O)C4CC4)nn23)cc1 [Compound 108]
14 |  | 101 to 500 | < 100 | < 100 | ** (** 26-50) | 501 to 1000 | ** (** 26-50) | 1 to 500 | 36.5 | 0.9 | O=C(Nc1nc2cccc(-c3ccc(CN4CCC(F)(F)CC4)cc3)n2n1)C1CC1 [Compound 234, Cyclopropanecarboxylic acid {5-[4-(4,4-difluoro-piperidin-1-ylmethyl)-phenyl]-[1,2,4]triazolo[1,5-a]pyridin-2-yl}-amide]
15 |  | 501 to 1000 | < 100 | < 100 | ** (** 26-50) | 101 to 500 | *** (*** 51-75) | > 1000 | 29.6 | 1.3 | O=C(Nc1nc2cccc(-c3ccc(CN4CCC(C(F)(F)F)CC4)cc3)n2n1)C1CC1 [Compound 240, Cyclopropanecarboxylic acid {5-[4-(4-trifluoromethyl-piperidin-1-ylmethyl)-phenyl]-[1,2,4]triazolo[1,5-a]pyridin-2-yl}-amide]
